{"source": "patent US9457022B2", "about": "“Methods and compositions for treating or preventing symptoms of hormonal variations” (priority 2010, dated 2016)", "key": {"hot flashes [1]": {"system": "hot flashes", "experiment": "Dextromethorphan HBr in menopausal women with no breast cancer history; severity and frequency of hot flashes", "assay_type": "in vivo, human", "settings": "15 mg in the morning and 15 mg in the evening; summary of Table 1", "procedure": "The dosage given in these test cases was 15 mg in the morning and 15 mg in the evening of Dextromethorphan, e.g., DextromethorphanHBr. The decrease in the symptoms of hormonal variation was noted by assessing the severity and frequency of hot flashes."}, "[2]": {"system": "hot flashes, night sweats and other menopausal symptoms", "settings": "for Impact on reducing the menopausal symptoms (hot flashes, night sweats): 2009, patient on Tamoxifen, Clonidine given with Vitamin E", "excerpt": "One of ordinary skill in the art would appreciate that this specific example is not intended to limit the scope of the invention.\nIn September of 1993, a person who had been experiencing severe menstrual cycles required a partial hysterectomy. […] Approximately a year after surgery, they were placed on Cenestin™ (a kind of hormone replacement therapy, i.e., “HRT”).\nAt this time, the patient began taking dosages of Wellbutrin™ and receiving another hormone replacement therapy of estrogen and testosterone to treat the hot flashes, night sweats and other menopausal symptoms.\nIn November of 2008, the patient was diagnosed with Stage 2 breast cancer and the HRT was discontinued immediately. Subsequently, the patient underwent a lumpectomy and the removal of fourteen lymph nodes (one tested positive).\nIn December 2008, the patient went through an intense treatment of chemotherapy which lasted until April 2009. At this time, a less intense chemotherapy treatment was continued until November 2009. The patient also received radiation therapy from April 2009 until June 2009. At the end of the radiation therapy, the patient was started on a regimen of Tamoxifen™.\nClonidine™ is a direct-acting α2 adrenergic agonist that is used to treat several medical conditions. […] Both the Clonidine™ and the Wellbutrin™ were discontinued in June 2009.\nIt was originally developed for the treatment of epilepsy, and currently, gabapentin is widely used to relieve pain, especially neuropathic pain. […] At this time, the patient was treated with Effexor™ (generic name Venlafaxine), a medication which is used primarily for the treatment of major depression, generalized anxiety disorder, social anxiety disorder, obsessive—compulsive disorder, panic disorder, and menopausal hot flashes in adults.\nAt this time, the patient began Wellbutrin™ again to treat the hot flashes, night sweats and other menopausal symptoms.\nThe dosage continued and remained the same for another 5 days."}, "hot flashes [3]": {"system": "hot flashes", "settings": "cited from earlier work"}, "hot flashes [4]": {"system": "hot flashes", "settings": "men; double blind, cross over study; cited from earlier work"}}, "note": "Where two headings read alike, the source gives them in different places."}
{"smiles": "COc1ccc2c(c1)[C@]13CCCC[C@@H]1[C@H](C2)N(C)CC3", "note": "[Dextromethorphan HBr]", "values": [{"measurement": "Women who no longer had hot flashes when on Dextromethorphan", "setting": "hot flashes [1]", "value": "four out of the five"}, {"measurement": "Hot flashes, night sweats and other menopausal symptoms", "setting": "[2]; 30 mg per day (15 mg every 12 hours), by the third day", "value": "totally gone"}, {"measurement": "Occurrence of hot flashes, night sweats and other menopausal symptoms", "setting": "[2]; 30 mg per day (15 mg every 12 hours), two days after starting", "value": "reduced significantly"}, {"measurement": "Time to reoccurrence of menopausal symptoms after discontinuation", "setting": "[2]; after 8 days of 30 mg per day", "value": "≤ 24", "unit": "h"}, {"measurement": "Hot flashes, night sweats and menopausal symptoms after Wellbutrin was discontinued", "setting": "[2]; continuing Dextromethorphan HBr alone", "value": "did not reoccur"}, {"measurement": "Time to elimination of symptoms after again commencing treatment", "setting": "[2]; human, in vivo", "value": "≤ 24", "unit": "h"}]}
{"smiles": "CNCCC(Oc1ccc(C(F)(F)F)cc1)c1ccccc1", "note": "(stereo not drawn) [Fluoxetine]", "values": [{"measurement": "Reduction in hot-flash scores", "setting": "hot flashes [3]; 20 mg/day, placebo 36%", "value": 50, "unit": "%"}]}
{"smiles": "CC/C(=C(\\c1ccccc1)c1ccc(OCCN(C)C)cc1)c1ccccc1", "note": "[Tamoxifen™, tamoxifen]", "values": [{"measurement": "Hot flashes, night sweats and other menopausal symptoms since commencing treatment", "setting": "[2]; human, in vivo", "value": "increased in intensity"}]}
{"smiles": "CC(NC(C)(C)C)C(=O)c1cccc(Cl)c1", "note": "(stereo not drawn) [Wellbutrin™, bupropian]", "values": [{"measurement": "Impact on reducing the menopausal symptoms (hot flashes, night sweats)", "setting": "[2]", "value": "no impact"}, {"measurement": "Frequency and intensity of hot flashes, night sweats and other menopausal symptoms (patient report)", "setting": "[2]; Wellbutrin together with hormone replacement therapy of estrogen and testosterone, from 2006", "value": "markedly reduced"}]}
{"smiles": "Clc1cccc(Cl)c1N=C1NCCN1", "note": "[clonidine]", "values": [{"measurement": "Impact on reducing the menopausal symptoms (hot flashes, night sweats)", "setting": "[2]", "value": "no impact"}, {"measurement": "Difference from placebo effect in self-reported hot flash frequency", "setting": "hot flashes [4]", "value": "not statistically significant"}, {"measurement": "Adverse effects (dry mouth, dizziness, blurred vision)", "setting": "hot flashes [3]; randomized clinical trials", "value": "common"}, {"measurement": "Efficacy versus placebo in preventing hot flashes", "setting": "hot flashes [3]; randomized clinical trials", "value": "moderately more efficacious than placebo"}, {"measurement": "Decrease of hot flash frequency greater than that seen with placebo", "setting": "hot flashes [3]; women treated with clonidine", "value": "10-15%"}]}
{"smiles": "NCC1(CC(=O)O)CCCCC1", "note": "[gabapentin]", "values": [{"measurement": "Impact on reducing the menopausal symptoms (hot flashes, night sweats)", "setting": "[2]", "value": "no impact"}, {"measurement": "Reduction of incidence of hot flashes", "setting": "hot flashes [3]; pilot trials", "value": "42%-70%"}]}
{"smiles": "CC(=O)O[C@]1(C(C)=O)CC[C@H]2[C@@H]3C=C(C)C4=CC(=O)CC[C@]4(C)[C@H]3CC[C@@]21C", "note": "[megestrol acetate]", "values": [{"measurement": "Reduction in self-reported hot flash frequency", "setting": "hot flashes [3]; men and women, placebo 20%", "value": "~80", "unit": "%"}]}
{"smiles": "COc1ccc(C(CN(C)C)C2(O)CCCCC2)cc1", "note": "(stereo not drawn) [venlafaxine]", "values": [{"measurement": "Impact on reducing the menopausal symptoms (hot flashes, night sweats)", "setting": "[2]", "value": "no impact"}, {"measurement": "Reduction in hot-flash scores", "setting": "hot flashes [3]; randomized clinical trial, low dose (37.5 mg/day), placebo 27%", "value": 37, "unit": "%"}, {"measurement": "Reduction in hot-flash scores", "setting": "hot flashes [3]; randomized clinical trial, moderate and high doses (75 and 150 mg/day), statistically significant", "value": 61, "unit": "%"}]}
